Target: T1, Neuraminidase (Derived from Vibrio cholerae) (Vibrio cholerae serotype O1, UniProt P0C6E9)
T1 construct: host or cells: Vibrio cholerae (printed as 'Vibro-Choralie')
Experiment: Inhibition activity against neuraminidase (pre-incubation, p-nitrophenyl-α-N-acetyl neuraminic acid hydrolysis, absorbance 405 nm)
Type: biochemical
Conditions: irreversible inhibitor; pre-incubation 0, 10 or 30 min with 0-0.5 mM, pH 5.0; calculated from inhibition curve (FIG. 3); read-out: inhibition constant (Ki)
Description: Neuraminidase (50 μg) produced by Vibro-Choralie was pre-incubated in 50 mM phosphoric acid-tartaric acid buffer (pH 5.0, 10 μ1) together with the compound 6 (0, 0.05, 0.1, 0.2, and 0.5 mM), after 0, 10 or 30 minutes, 2 μl of the reaction solution was fractionated, respectively. The fractionated and pre-incubated solution was immediately incubated for 5 minutes in 50 mM phosphoric acid-tartaric acid buffer (pH 5.0, 50 μl) using 5 mM p-nitrophenyl-α-N-acetyl neuraminic acid. Then, glycine buffer (pH 11.0, […]) was added to each fractionated solution to stop the reaction. The amount of p-nitrophenol produced by hydrolysis reaction of neuraminidase was calculated by absorbance determination at 405 nm.

T1 sequence (P0C6E9 25-781): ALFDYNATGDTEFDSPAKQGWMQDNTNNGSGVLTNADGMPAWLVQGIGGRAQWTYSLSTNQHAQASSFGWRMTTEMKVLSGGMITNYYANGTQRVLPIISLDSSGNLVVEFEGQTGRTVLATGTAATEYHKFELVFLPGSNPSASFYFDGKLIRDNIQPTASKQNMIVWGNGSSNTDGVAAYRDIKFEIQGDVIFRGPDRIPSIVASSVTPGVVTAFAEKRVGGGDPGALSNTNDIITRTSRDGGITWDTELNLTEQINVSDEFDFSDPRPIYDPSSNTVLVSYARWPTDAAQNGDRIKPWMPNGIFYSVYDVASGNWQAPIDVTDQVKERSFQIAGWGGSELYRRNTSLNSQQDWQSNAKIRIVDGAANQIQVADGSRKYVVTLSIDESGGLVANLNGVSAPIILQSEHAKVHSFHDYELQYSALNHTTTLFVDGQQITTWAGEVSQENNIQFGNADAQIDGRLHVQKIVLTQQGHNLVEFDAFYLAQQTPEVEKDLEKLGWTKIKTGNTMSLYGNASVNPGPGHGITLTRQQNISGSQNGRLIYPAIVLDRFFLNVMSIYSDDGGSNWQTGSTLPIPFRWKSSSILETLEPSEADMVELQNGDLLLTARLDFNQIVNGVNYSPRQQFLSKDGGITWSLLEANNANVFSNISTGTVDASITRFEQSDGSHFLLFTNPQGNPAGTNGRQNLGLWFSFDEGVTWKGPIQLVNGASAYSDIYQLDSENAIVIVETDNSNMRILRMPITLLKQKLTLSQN

CC(=O)NC1C(O)CC(Oc2ccc(NS(=O)(=O)c3cccc4c(N(C)C)cccc34)cc2C(F)F)(C(=O)O)OC1C(O)C(O)CO (stereo not shown) [compound 6]
Ki: 1900 µM
